Columns and labels:
Format in all cases: in vivo
[1] = system: corn (Zea mays); test: Test G Post-Emergence Protocol; settings: Zea mays, post-emergence, 312 h, read-out: Corn damage rating; for plant injury at 15.625 g/ha: 15.625 g ai/ha, evaluated after 13 days (100=total damage to plant; 0=no damage to plant); for plant injury at 62.5 g/ha: 62.5 g ai/ha; for plant injury at 62.5 g/ha / plant injury at 250 g/ha: evaluated after 13 days, 100=total damage to plant, 0=no damage to plant; for plant injury at 250 g/ha: 250 g ai/ha
Procedure, shortened: (§1)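 Values are percent visual injury at 13 days after treatment (0 none, 100 total). Treatment was a post-emergence spray at 15.625, 62.5 or 250 g/ha on 8-day-old pot plants kept at 24/16 °C.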

[2] = system: giant foxtail (Setaria faberi); test: Test G Post-Emergence Protocol; settings: Setaria faberi, post-emergence, 312 h, read-out: Foxtail, Giant damage rating; for pest or weed control at 15.625 g/ha: 15.625 g ai/ha, evaluated after 13 days (100=total damage to plant; 0=no damage to plant); for pest or weed control at 62.5 g/ha: 62.5 g ai/ha; for pest or weed control at 62.5 g/ha / pest or weed control at 250 g/ha: evaluated after 13 days, 100=total damage to plant, 0=no damage to plant; for pest or weed control at 250 g/ha: 250 g ai/ha
Procedure, shortened: as §1

[3] = system: velvetleaf (Abutilon theophrasti); test: Test G Post-Emergence Protocol; settings: Abutilon theophrasti, post-emergence, 312 h, read-out: Velvetleaf damage rating; for pest or weed control at 15.625 g/ha: 15.625 g ai/ha, evaluated after 13 days (100=total damage to plant; 0=no damage to plant); for pest or weed control at 62.5 g/ha: 62.5 g ai/ha; for pest or weed control at 62.5 g/ha / pest or weed control at 250 g/ha: evaluated after 13 days, 100=total damage to plant, 0=no damage to plant; for pest or weed control at 250 g/ha: 250 g ai/ha
Procedure, shortened: as §1

[4] = system: redroot pigweed (Amaranthus retroflexus); test: Test G Post-Emergence Protocol; settings: Amaranthus retroflexus, post-emergence, 312 h, read-out: Pigweed, Redroot damage rating; for pest or weed control at 15.625 g/ha: 15.625 g ai/ha, evaluated after 13 days (100=total damage to plant; 0=no damage to plant); for pest or weed control at 62.5 g/ha: 62.5 g ai/ha; for pest or weed control at 62.5 g/ha / pest or weed control at 250 g/ha: evaluated after 13 days, 100=total damage to plant, 0=no damage to plant; for pest or weed control at 250 g/ha: 250 g ai/ha
Procedure, shortened: as §1

[5] = system: barnyardgrass (Echinochloa crus-galli); test: Test G Post-Emergence Protocol; settings: Echinochloa crus-galli, post-emergence, 312 h, read-out: Barnyardgrass damage rating; for pest or weed control at 15.625 g/ha: 15.625 g ai/ha, evaluated after 13 days (100=total damage to plant; 0=no damage to plant); for pest or weed control at 62.5 g/ha: 62.5 g ai/ha; for pest or weed control at 62.5 g/ha / pest or weed control at 250 g/ha: evaluated after 13 days, 100=total damage to plant, 0=no damage to plant; for pest or weed control at 250 g/ha: 250 g ai/ha
Procedure, shortened: as §1

[6] = system: ivy-leaved morning glory (Ipomoea hederacea); test: Test G Post-Emergence Protocol; settings: Ipomoea, post-emergence, 312 h, read-out: Morningglory, Ivy-leaved damage rating; for pest or weed control at 15.625 g/ha: 15.625 g ai/ha, evaluated after 13 days (100=total damage to plant; 0=no damage to plant); for pest or weed control at 62.5 g/ha: 62.5 g ai/ha; for pest or weed control at 62.5 g/ha / pest or weed control at 250 g/ha: evaluated after 13 days, 100=total damage to plant, 0=no damage to plant; for pest or weed control at 250 g/ha: 250 g ai/ha
Procedure, shortened: as §1

[7] = system: corn (Zea mays); test: Test G Pre-Emergence Protocol; settings: Zea mays, pre-emergence, 312 h, evaluated after 13 days; for plant injury at 15.625 g/ha: 15.625 g ai/ha; for plant injury at 15.625 g/ha / plant injury at 250 g/ha: read-out: Corn damage rating (100=total damage to plant; 0=no damage to plant); for plant injury at 62.5 g/ha: 62.5 g ai/ha, 100=total damage to plant, 0=no damage to plant, read-out: Corn damage rating; for plant injury at 250 g/ha: 250 g ai/ha
Procedure, shortened: (§2)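 Visual injury (0–100) at day 13 after a single pre-emergence spray. Rates: 15.625, 62.5, 250 g/ha in acetone–water 50:50 with 0.5% Tween 20. Growth conditions: 24/16° C, 14 h light, 65% humidity.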

[8] = system: giant foxtail (Setaria faberi); test: Test G Pre-Emergence Protocol; settings: Setaria faberi, pre-emergence, 312 h, evaluated after 13 days; for pest or weed control at 15.625 g/ha: 15.625 g ai/ha; for pest or weed control at 15.625 g/ha / pest or weed control at 250 g/ha: read-out: Foxtail, Giant damage rating (100=total damage to plant; 0=no damage to plant); for pest or weed control at 62.5 g/ha: 62.5 g ai/ha, 100=total damage to plant, 0=no damage to plant, read-out: Foxtail, Giant damage rating; for pest or weed control at 250 g/ha: 250 g ai/ha
Procedure, shortened: as §2

[9] = system: velvetleaf (Abutilon theophrasti); test: Test G Pre-Emergence Protocol; settings: Abutilon theophrasti, pre-emergence, 312 h, evaluated after 13 days; for pest or weed control at 15.625 g/ha: 15.625 g ai/ha; for pest or weed control at 15.625 g/ha / pest or weed control at 250 g/ha: read-out: Velvetleaf damage rating (100=total damage to plant; 0=no damage to plant); for pest or weed control at 62.5 g/ha: 62.5 g ai/ha, 100=total damage to plant, 0=no damage to plant, read-out: Velvetleaf damage rating; for pest or weed control at 250 g/ha: 250 g ai/ha
Procedure, shortened: as §2

[10] = system: redroot pigweed (Amaranthus retroflexus); test: Test G Pre-Emergence Protocol; settings: Amaranthus retroflexus, pre-emergence, 312 h, evaluated after 13 days; for pest or weed control at 15.625 g/ha: 15.625 g ai/ha; for pest or weed control at 15.625 g/ha / pest or weed control at 250 g/ha: read-out: Pigweed, Redroot damage rating (100=total damage to plant; 0=no damage to plant); for pest or weed control at 62.5 g/ha: 62.5 g ai/ha, 100=total damage to plant, 0=no damage to plant, read-out: Pigweed, Redroot damage rating; for pest or weed control at 250 g/ha: 250 g ai/ha
Procedure, shortened: as §2

[11] = system: barnyardgrass (Echinochloa crus-galli); test: Test G Pre-Emergence Protocol; settings: Echinochloa crus-galli, pre-emergence, 312 h, evaluated after 13 days; for pest or weed control at 15.625 g/ha: 15.625 g ai/ha; for pest or weed control at 15.625 g/ha / pest or weed control at 250 g/ha: read-out: Barnyardgrass damage rating (100=total damage to plant; 0=no damage to plant); for pest or weed control at 62.5 g/ha: 62.5 g ai/ha, 100=total damage to plant, 0=no damage to plant, read-out: Barnyardgrass damage rating; for pest or weed control at 250 g/ha: 250 g ai/ha
Procedure, shortened: as §2

[12] = system: ivy-leaved morning glory (Ipomoea hederacea); test: Test G Pre-Emergence Protocol; settings: Ipomoea, pre-emergence, 312 h, evaluated after 13 days; for pest or weed control at 15.625 g/ha: 15.625 g ai/ha; for pest or weed control at 15.625 g/ha / pest or weed control at 250 g/ha: read-out: Morningglory, Ivy-leaved damage rating (100=total damage to plant; 0=no damage to plant); for pest or weed control at 62.5 g/ha: 62.5 g ai/ha, 100=total damage to plant, 0=no damage to plant, read-out: Morningglory, Ivy-leaved damage rating; for pest or weed control at 250 g/ha: 250 g ai/ha
Procedure, shortened: as §2

SMILES	plant injury at 15.625 g/ha [1]	plant injury at 62.5 g/ha [1]	plant injury at 250 g/ha [1]	pest or weed control at 15.625 g/ha [2]	pest or weed control at 62.5 g/ha [2]	pest or weed control at 250 g/ha [2]	pest or weed control at 15.625 g/ha [3]	pest or weed control at 62.5 g/ha [3]	pest or weed control at 250 g/ha [3]	pest or weed control at 15.625 g/ha [4]	pest or weed control at 62.5 g/ha [4]	pest or weed control at 250 g/ha [4]	pest or weed control at 15.625 g/ha [5]	pest or weed control at 62.5 g/ha [5]	pest or weed control at 250 g/ha [5]	pest or weed control at 15.625 g/ha [6]	pest or weed control at 62.5 g/ha [6]	pest or weed control at 250 g/ha [6]	plant injury at 15.625 g/ha [7]	plant injury at 62.5 g/ha [7]	other results
CN1C[C@@H](c2ccc(C(F)(F)F)cc2)[C@H](C(=O)Nc2ccnc(Cl)c2F)C1=O (racemic) [Compound 1656]	0%	0%	0%	20%	30%	80%	0%	0%	20%	0%	20%	30%	10%	10%	30%	0%	0%	0%	0%	0%	plant injury at 250 g/ha [7]: 0%; pest or weed control at 15.625 g/ha [8]: 0%; pest or weed control at 62.5 g/ha [8]: 0%; pest or weed control at 250 g/ha [8]: 80%; pest or weed control at 15.625 g/ha [9]: 0%; pest or weed control at 62.5 g/ha [9]: 0%; pest or weed control at 250 g/ha [9]: 0%; pest or weed control at 15.625 g/ha [10]: 0%; pest or weed control at 62.5 g/ha [10]: 0%; pest or weed control at 250 g/ha [10]: 0%; pest or weed control at 15.625 g/ha [11]: 0%; pest or weed control at 62.5 g/ha [11]: 0%; pest or weed control at 250 g/ha [11]: 20%; pest or weed control at 15.625 g/ha [12]: 0%; pest or weed control at 62.5 g/ha [12]: 20%; pest or weed control at 250 g/ha [12]: 0%
Cc1c[nH]nc1NC(=O)[C@@H]1C(=O)N(C)C[C@H]1c1ccc(C(F)(F)F)cc1 (racemic) [Compound 1660]	0%	0%	0%	0%	0%	0%	0%	0%	0%	0%	0%	0%	0%	0%	0%	0%	0%	0%	0%	0%	plant injury at 250 g/ha [7]: 0%; pest or weed control at 15.625 g/ha [8]: 0%; pest or weed control at 62.5 g/ha [8]: 0%; pest or weed control at 250 g/ha [8]: 0%; pest or weed control at 15.625 g/ha [9]: 0%; pest or weed control at 62.5 g/ha [9]: 0%; pest or weed control at 250 g/ha [9]: 0%; pest or weed control at 15.625 g/ha [10]: 0%; pest or weed control at 62.5 g/ha [10]: 0%; pest or weed control at 250 g/ha [10]: 0%; pest or weed control at 15.625 g/ha [11]: 0%; pest or weed control at 62.5 g/ha [11]: 0%; pest or weed control at 250 g/ha [11]: 0%; pest or weed control at 15.625 g/ha [12]: 0%; pest or weed control at 62.5 g/ha [12]: 0%; pest or weed control at 250 g/ha [12]: 0%

— patent publication US12077503B2, “Substituted cyclic amides and their use as herbicides” (FMC CORPORATION, priority 2015, dated 2024)
